Results: patent publication US8188078B2 (Sanofi-Aventis, priority 2007, dated 2012)

Key:
[1] = target: RON (Homo sapiens, UniProt Q04912); assay: Test B: HTRF RON test in 96-well format; type: biochemical
Procedure, shortened: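 RON 5 nM pre-incubated 30 min at RT with compound (0.17 nM–10 μM final, 3% DMSO) in MOPS 10 mM pH 7, DTT, Tween 20. Reaction with biotinylated poly-(GAT) 1 μg/ml, ATP 10 μM, MgCl2 5 mM, 30 min RT. Eu-anti-pTyr/streptavidin-XL665 HTRF, 665/620 ratio gives % inhibition, IC50.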

[2] = target: T1, MET (Homo sapiens, UniProt P08581); assay: Test C: inhibition of the autophosphorylation of MET, ELISA technique (pppY1230, 1234, 1235), MKN45 cells; type: cell-based
T1 construct: endogenous in cells; host or cells: MKN45 cells
Procedure, shortened: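 MKN45 cells adhered 24 h, then treated 1 h with compound at 6 concentrations in duplicate, final range 10000 to 30 nM. Lysates assayed by phospho-MET (pY1230/1234/1235) sandwich ELISA with HRP chromogen read at 450 nm.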

[3] = tested on: MKN45 cells; assay: Test D: cellular proliferation by 14C-thymidine pulse, MKN45 cells; type: cell-based; conditions: cell line not stated (HCT116 or MKN45)
Procedure, shortened: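 MKN45 cells (7500/well, RPMI + 10% foetal calf serum) treated with 10 concentrations, 10000 to 0.3 nM in 3-fold steps, duplicate. 14C-thymidine (0.1 μCi/well) added at 72 h; incorporation counted after 24 h pulse, 96 h total treatment.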

[4] = Homo sapiens, MKN-45, cellular proliferation by 14C-thymidine pulse

T1 sequence (P08581 25-1390): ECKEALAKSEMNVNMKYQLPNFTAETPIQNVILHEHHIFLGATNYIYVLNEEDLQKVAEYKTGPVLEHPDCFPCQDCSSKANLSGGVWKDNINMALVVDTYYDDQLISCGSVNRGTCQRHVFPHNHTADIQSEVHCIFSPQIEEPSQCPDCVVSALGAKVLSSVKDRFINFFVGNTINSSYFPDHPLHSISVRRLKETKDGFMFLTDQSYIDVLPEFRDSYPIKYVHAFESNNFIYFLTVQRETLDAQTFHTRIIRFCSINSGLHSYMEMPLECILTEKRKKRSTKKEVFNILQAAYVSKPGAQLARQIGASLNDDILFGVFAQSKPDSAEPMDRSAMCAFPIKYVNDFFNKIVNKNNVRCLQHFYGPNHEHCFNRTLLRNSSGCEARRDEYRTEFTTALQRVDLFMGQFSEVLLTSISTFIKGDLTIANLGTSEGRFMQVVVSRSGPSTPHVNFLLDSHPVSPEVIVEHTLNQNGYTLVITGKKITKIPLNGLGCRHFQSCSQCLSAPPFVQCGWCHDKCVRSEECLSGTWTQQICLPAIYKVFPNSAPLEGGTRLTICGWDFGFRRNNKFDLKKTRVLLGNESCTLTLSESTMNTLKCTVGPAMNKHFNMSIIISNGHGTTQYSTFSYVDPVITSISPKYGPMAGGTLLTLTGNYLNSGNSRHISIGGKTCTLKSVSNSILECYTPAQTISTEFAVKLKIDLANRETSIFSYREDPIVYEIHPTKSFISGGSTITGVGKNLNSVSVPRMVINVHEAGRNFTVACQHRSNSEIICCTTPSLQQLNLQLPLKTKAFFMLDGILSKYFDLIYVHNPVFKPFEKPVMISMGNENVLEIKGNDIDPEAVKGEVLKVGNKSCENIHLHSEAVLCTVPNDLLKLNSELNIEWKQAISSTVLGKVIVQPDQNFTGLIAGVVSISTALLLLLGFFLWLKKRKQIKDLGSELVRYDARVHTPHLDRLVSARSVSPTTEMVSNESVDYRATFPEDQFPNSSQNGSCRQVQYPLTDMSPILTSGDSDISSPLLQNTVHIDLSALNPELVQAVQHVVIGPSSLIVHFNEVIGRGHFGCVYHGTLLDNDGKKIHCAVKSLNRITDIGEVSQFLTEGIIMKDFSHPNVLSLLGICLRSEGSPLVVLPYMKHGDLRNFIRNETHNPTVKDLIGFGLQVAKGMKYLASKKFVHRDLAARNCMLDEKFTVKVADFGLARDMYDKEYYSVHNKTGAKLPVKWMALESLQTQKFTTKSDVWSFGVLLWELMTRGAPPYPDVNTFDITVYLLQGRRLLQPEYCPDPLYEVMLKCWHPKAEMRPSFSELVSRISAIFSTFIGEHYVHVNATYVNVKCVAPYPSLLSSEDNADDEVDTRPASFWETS
Sequence of RON (Q04912 25-1400): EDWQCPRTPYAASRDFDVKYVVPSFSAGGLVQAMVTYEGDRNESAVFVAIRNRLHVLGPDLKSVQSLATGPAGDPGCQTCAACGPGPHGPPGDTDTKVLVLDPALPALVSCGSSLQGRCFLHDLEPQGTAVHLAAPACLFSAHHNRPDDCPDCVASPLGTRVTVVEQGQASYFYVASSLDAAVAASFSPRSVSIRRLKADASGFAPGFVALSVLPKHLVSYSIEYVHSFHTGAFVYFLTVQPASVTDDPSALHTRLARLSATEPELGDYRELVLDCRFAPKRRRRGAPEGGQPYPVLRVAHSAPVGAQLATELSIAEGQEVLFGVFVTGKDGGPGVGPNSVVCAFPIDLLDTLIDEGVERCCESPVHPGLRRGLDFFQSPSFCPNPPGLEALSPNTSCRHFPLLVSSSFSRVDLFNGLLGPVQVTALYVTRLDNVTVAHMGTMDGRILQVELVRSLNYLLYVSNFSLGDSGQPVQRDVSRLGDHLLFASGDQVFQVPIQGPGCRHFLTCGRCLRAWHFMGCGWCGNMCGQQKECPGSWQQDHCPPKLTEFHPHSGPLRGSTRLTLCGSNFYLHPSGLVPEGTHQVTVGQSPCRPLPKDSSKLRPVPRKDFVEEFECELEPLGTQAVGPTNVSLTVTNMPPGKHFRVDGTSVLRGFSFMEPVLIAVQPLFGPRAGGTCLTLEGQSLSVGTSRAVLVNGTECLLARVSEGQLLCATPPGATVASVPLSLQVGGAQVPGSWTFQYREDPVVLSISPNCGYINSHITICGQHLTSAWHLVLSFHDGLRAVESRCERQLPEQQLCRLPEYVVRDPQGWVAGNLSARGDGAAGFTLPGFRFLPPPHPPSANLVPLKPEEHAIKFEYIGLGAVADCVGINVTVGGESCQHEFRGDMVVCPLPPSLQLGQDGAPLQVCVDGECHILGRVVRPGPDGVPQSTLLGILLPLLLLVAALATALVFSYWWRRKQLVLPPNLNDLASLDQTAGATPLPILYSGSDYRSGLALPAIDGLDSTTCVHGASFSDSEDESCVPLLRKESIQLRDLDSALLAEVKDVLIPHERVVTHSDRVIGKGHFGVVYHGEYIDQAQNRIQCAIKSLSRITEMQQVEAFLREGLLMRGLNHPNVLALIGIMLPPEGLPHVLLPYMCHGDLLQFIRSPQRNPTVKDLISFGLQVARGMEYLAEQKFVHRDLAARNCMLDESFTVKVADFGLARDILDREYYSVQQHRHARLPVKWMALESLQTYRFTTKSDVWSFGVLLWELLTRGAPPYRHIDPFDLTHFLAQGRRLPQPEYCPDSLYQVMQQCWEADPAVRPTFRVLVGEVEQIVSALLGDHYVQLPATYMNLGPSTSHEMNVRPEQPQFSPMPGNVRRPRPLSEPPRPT

In the case of `CC(Oc1cc2sc(NC(=O)NCCN3CCN(C)CC3)nc2cc1F)c1c(Cl)ccc(F)c1Cl` (single isomer, unassigned) [Example 76, 1-{6-[(1R*)-1-(2,6-dichloro-3-fluorophenyl)ethoxy]-5-fluoro-1,3-benzothiazol-2-yl}-3-[2-(4-methylpiperazin-1-yl)ethyl]urea], the IC50 [1] is reported as less than 0.5 µM, the IC50 [2] is reported as less than 0.5 µM and the IC50 [3, 4] is reported as less than 0.5 µM.

`CC(Oc1cc2sc(NC(=O)NCCN3CCN(C)CC3)nc2cc1F)c1c(Cl)ccc(F)c1Cl` (single isomer, unassigned) [Example 77, 1-{6-[(1S*)-1-(2,6-dichloro-3-fluorophenyl)ethoxy]-5-fluoro-1,3-benzothiazol-2-yl}-3-[2-(4-methylpiperazin-1-yl)ethyl]urea] showed an IC50 [1] of 0.5 to 10 µM, an IC50 [2] of 0.5 to 10 µM and an IC50 ([3]; cellular proliferation by 14C-thymidine pulse) of 0.5 to 10 µM.

`CC(Oc1cc2sc(NC(=O)NCCN3CCCC3)nc2cc1F)c1c(Cl)ccc(F)c1Cl` (single isomer, unassigned) [Example 85, 1-{6-[(1R*)-1-(2,6-dichloro-3-fluorophenyl)ethoxy]-5-fluoro-1,3-benzothiazol-2-yl}-3-[2-(pyrrolidin-1-yl)ethyl]urea] showed an IC50 [1] of less than 0.5 µM, an IC50 [2] of less than 0.5 µM and an IC50 [3, 4] of less than 0.5 µM.

For `CC(Oc1cc2sc(NC(=O)NCCN)nc2cc1F)c1c(Cl)ccc(F)c1Cl` (single isomer, unassigned) [Example 89, 1-(2-aminoethyl)-3-{6-[(1R*)-1-(2,6-dichloro-3-fluorophenyl)ethoxy]-5-fluoro-1,3-benzothiazol-2-yl}urea], the IC50 [1] was 0.5 to 10 µM, the IC50 [2] was less than 0.5 µM and the IC50 [3, 4] was 0.5 to 10 µM.

`CC(Oc1cc2[nH]c(NC(=O)NCCN3CCOCC3)nc2cc1F)c1c(Cl)ccc(F)c1Cl` (stereo not shown) [Example 6, 1-{6-[1-(2,6-dichloro-3-fluorophenyl)ethoxy]-5-fluoro-1H-benzimidazol-2-yl}-3-(2-morpholin-4-ylethyl)urea] gave an IC50 [1] of less than 0.5 µM, an IC50 [2] of less than 0.5 µM and an IC50 [3, 4] of 0.5 to 10 µM. The melting point was 190 to 192 °C.

Molecule `O=C(Nc1nc2ccc(OCc3c(Cl)cccc3Cl)cc2[nH]1)C1CC1` [Example 7, N-{6-[(2,6-dichlorobenzyl)oxy]-1H-benzimidazol-2-yl}cyclopropane carboxamide] has an IC50 [1] of 0.5 to 10 µM, an IC50 [2] of 0.5 to 10 µM and an IC50 [3, 4] of less than 0.5 µM. The melting point was 133 to 135 °C.

Work on `CC(Oc1cc2sc(NC(=O)NCCN3CCN(C)CC3)nc2cc1F)c1c(Cl)ccc(F)c1Cl` (stereo not shown) [Example 75, 1-{6-[1-(2,6-dichloro-3-fluorophenyl)ethoxy]-5-fluoro-1,3-benzothiazol-2-yl}-3-[2-(4-methylpiperazin-1-yl)ethyl]urea] yielded an IC50 [1] of less than 0.5 µM, an IC50 [2] of less than 0.5 µM and an IC50 [3, 4] of less than 0.5 µM. The melting point was 131 to 134 °C.

With `CC(Oc1cc2sc(NC(=O)NCCCN3CCCC3=O)nc2cc1F)c1c(Cl)ccc(F)c1Cl` (stereo not shown) [Example 78, 1-{6-[1-(2,6-dichloro-3-fluorophenyl)ethoxy]-5-fluoro-1,3-benzothiazol-2-yl}-3-[3-(2-oxopyrrolidin-1-yl)propyl]urea] the IC50 [1] was less than 0.5 µM, the IC50 [2] was less than 0.5 µM and the IC50 [3, 4] was 0.5 to 10 µM. For the same molecule, the melting point was 191 to 195 °C.

`CC(Oc1cc2sc(NC(=O)NCCC3CCCN3C)nc2cc1F)c1c(Cl)ccc(F)c1Cl` (stereo not shown) [Example 79, 1-{6-[1-(2,6-dichloro-3-fluorophenyl)ethoxy]-5-fluoro-1,3-benzothiazol-2-yl}-3-[2-(1-methylpyrrolidin-2-yl)ethyl]urea] showed an IC50 [1] of less than 0.5 µM, an IC50 [2] of less than 0.5 µM and an IC50 [3, 4] of 0.5 to 10 µM. It also gave a melting point of 78 to 89 °C.

In the case of `COCCNC(=O)Nc1nc2cc(F)c(OC(C)c3c(Cl)ccc(F)c3Cl)cc2s1` (stereo not shown) [Example 81, 1-{6-[1-(2,6-dichloro-3-fluorophenyl)ethoxy]-5-fluoro-1,3-benzothiazol-2-yl}-3-(2-methoxyethyl)urea], the IC50 [1] is reported as less than 0.5 µM, the IC50 [2] is reported as less than 0.5 µM and the IC50 [3, 4] is reported as 0.5 to 10 µM. It also gave a melting point of 176 to 179 °C.

For `CCN(CC)CCNC(=O)Nc1nc2ccc(OC(C)c3c(Cl)ccc(F)c3Cl)cc2s1` (stereo not shown) [Example 82, 1-{6-[1-(2,6-dichloro-3-fluorophenyl)ethoxy]-1,3-benzothiazol-2-yl}-3-[2-(diethylamino)ethyl]urea], the IC50 [1] was 0.5 to 10 µM, the IC50 [2] was less than 0.5 µM and the IC50 [3, 4] was 0.5 to 10 µM. It also gave a melting point of 74 to 83 °C.

Molecule `CCN(CC)CCCNC(=O)Nc1nc2ccc(OC(C)c3c(Cl)ccc(F)c3Cl)cc2s1` (stereo not shown) [Example 83, 1-{6-[1-(2,6-dichloro-3-fluorophenyl)ethoxy]-1,3-benzothiazol-2-yl}-3-[3-(diethylamino)propyl]urea] has an IC50 [1] of 0.5 to 10 µM, an IC50 [2] of less than 0.5 µM and an IC50 [3, 4] of 0.5 to 10 µM.

`CC(Oc1cc2sc(NC(=O)NCCN3CCCC3)nc2cc1F)c1c(Cl)ccc(F)c1Cl` (stereo not shown) [Example 84, 1-{6-[1-(2,6-dichloro-3-fluorophenyl)ethoxy]-5-fluoro-1,3-benzothiazol-2-yl}-3-[2-(pyrrolidin-1-yl)ethyl]urea] gave an IC50 [1] of 0.5 to 10 µM, an IC50 [2] of less than 0.5 µM and an IC50 [3, 4] of less than 0.5 µM. It also gave a melting point of 178 to 190 °C.

In the case of `CC(Oc1cc2sc(NC(=O)NCCN)nc2cc1F)c1c(Cl)ccc(F)c1Cl` (stereo not shown) [Example 88, 1-(2-aminoethyl)-3-{6-[1-(2,6-dichloro-3-fluorophenyl)ethoxy]-5-fluoro-1,3-benzothiazol-2-yl}urea], the IC50 [1] is reported as 0.5 to 10 µM, the IC50 [2] is reported as less than 0.5 µM and the IC50 [3, 4] is reported as 0.5 to 10 µM. For the same molecule, the melting point was 178 °C.

With `CC(Oc1cc2sc(NC(=O)NCCN(C)Cc3ccccc3)nc2cc1F)c1c(Cl)ccc(F)c1Cl` (stereo not shown) [Example 94, 1-{2-[benzyl(methyl)amino]ethyl}-3-{6-[1-(2,6-dichloro-3-fluorophenyl)ethoxy]-5-fluoro-1,3-benzothiazol-2-yl}urea] the IC50 [1] was 0.5 to 10 µM, the IC50 [2] was 0.5 to 10 µM and the IC50 [3, 4] was 0.5 to 10 µM. The melting point was 142 to 146 °C.

Molecule `CC(Oc1cc2sc(NC(=O)NCCN(C)C(=O)OC(C)(C)C)nc2cc1F)c1c(Cl)ccc(F)c1Cl` (stereo not shown) [Example 95] has an IC50 [1] of 0.5 to 10 µM, an IC50 [2] of 0.5 to 10 µM and an IC50 [3, 4] of 0.5 to 10 µM.

For `CNCCNC(=O)Nc1nc2cc(F)c(OC(C)c3c(Cl)ccc(F)c3Cl)cc2s1` (stereo not shown) [Example 96, 1-{6-[1-(2,6-dichloro-3-fluorophenyl)ethoxy]-5-fluoro-1,3-benzothiazol-2-yl}-3-[2-(methylamino)ethyl]urea], the IC50 [1] was less than 0.5 µM, the IC50 [2] was less than 0.5 µM and the IC50 [3, 4] was 0.5 to 10 µM. For the same molecule, the melting point was 173 to 188 °C.

For `CC(Oc1cc2sc(NC(=O)NCCOCc3ccccc3)nc2cc1F)c1c(Cl)ccc(F)c1Cl` (stereo not shown) [Example 97, 1-[2-(benzyloxy)ethyl]-3-{6-[1-(2,6-dichloro-3-fluorophenyl)ethoxy]-5-fluoro-1,3-benzothiazol-2-yl}urea], the IC50 [1] was 0.5 to 10 µM, the IC50 [2] was 0.5 to 10 µM and the IC50 [3, 4] was 0.5 to 10 µM. It also gave a melting point of 170 °C.

For `CC(Oc1cc2sc(NC(=O)NCCO)nc2cc1F)c1c(Cl)ccc(F)c1Cl` (stereo not shown) [Example 98, 1-{6-[1-(2,6-dichloro-3-fluorophenyl)ethoxy]-5-fluoro-1,3-benzothiazol-2-yl}-3-(2-hydroxyethyl)urea], the IC50 [1] was less than 0.5 µM, the IC50 [2] was less than 0.5 µM and the IC50 [3, 4] was 0.5 to 10 µM. It also gave a melting point of 198 °C.
